The record followed here is article PMC8228600, “Design, Synthesis, In Vitro and In Vivo Evaluation of Heterobivalent SiFAlin-Modified Peptidic Radioligands Targeting Both Integrin αvβ3 and the MC1 Receptor—Suitable for the Specific Visualization of Melanomas?” (Pharmaceuticals, 2021).

Like-named read-outs stand apart in the source and are kept apart here. Where a SMILES comes first, the peptide text is derived from it. [ ]: non-standard residue; d: D form. Where only a bound is given, the exact number is not on record here.

Test [1] deals with T1, MC1R (Mus musculus, UniProt Q01727).
T1 construct: host or cells: B16F10 murine melanoma cells (whole cells)
Put plainly: Competitive displacement assay on MC1R-positive B16F10 cells vs [125I]I-NDP. Format: binding, murine. Here is the method:
(§1) As in vitro receptor affinities represent an important parameter for the in vivo tumor uptake of radiotracers, the binding affinities of 1–6 were determined to both target receptors—integrin αvβ3 and the MC1R—in competitive displacement assays.
(§2) Murine melanoma cells (B16F10) and human glioblastoma cells (U87MG) as well as Dulbecco’s Modified Eagle’s Medium (DMEM) and Eagle’s Minimum Essential Medium (EMEM) were purchased from ATCC (Wesel, Germany). Fetal calf serum (FCS) was obtained from Bio&SELL (Feucht, Germany); phosphate-buffered saline (PBS), 1,10-phenanthroline, tris(hydroxymethyl)aminomethane hydrochloride (Tris·HCl) and manganese chloride (MnCl2) were obtained from Sigma-Aldrich (Taufkirchen, Germany); penicillin/streptomycin (pen/strep) and 0.25% Trypsin with 0.02% EDTA-solution in PBS were obtained from Gibco (Schwerte, Germany); 2-(4-(2-hydroxyethyl)-1-piperazinyl)-ethanesulfonic acid (HEPES) was obtained from Gerbu (Heidelberg, Germany); bovine serum albumin (BSA), sodium chloride (NaCl), calcium chloride (CaCl2) and magnesium chloride (MgCl2) were obtained from Carl Roth (Karlsruhe, Germany). [^125I]I-NDP (NEX352, 81.4 GBq/μmol) and [^125I]I-echistatin (NEX083, 81.4 GBq/μmol) were purchased from PerkinElmer (Rodgau, Germany). γ-counting was performed using a 2480 Wizard^2 gamma counter system from PerkinElmer.
(§3) To determine the binding affinity to the respective receptor, competitive displacement studies were performed on MC1R-expressing B16F10 and on integrin αvβ3-expressing U87MG cells. Each compound was evaluated at least three times, each experiment being performed in triplicate. As radioligands, [^125I]I-NDP (81.4 GBq/μmol) and [^125I]I-echistatin (81.4 GBq/μmol) were used as competitors. First, the Millipore MultiScreen 96-well filter plate was incubated with 200 μL/well of a BSA/PBS (1/99, w/v) solution at 25 °C for 1 h. After preparing the binding buffers (DMEM with 25 mM HEPES, 0.3 mM 1,10-phenanthroline and 0.2% BSA; EMEM with 20 mM Tris·HCl, 150 mM NaCl, 2 mM CaCl2, 1 mM MgCl2, 1 mM MnCl2 and 0.1% BSA), the dilution series of the HBPLs 1–6 (0.04–4 μM and 2–400 μM) and the reference agents 36–39 (0.01–1 μM and 0.04–400 μM) were prepared in the respective binding buffer. The solution of the respective radioligand was prepared by adding 55–75 kBq of the respective ^125I-labeled competitor to 3.5 mL of binding buffer. The respective cells were harvested and re-suspended in the binding buffer to give a cell concentration of 2 × 10^6/mL. After the BSA solution was filtered using the Millipore Multiscreen vacuum manifold, 50 μL of a cell suspension containing 10^5 cells were seeded in each well. Subsequently, 25 μL of the ^125I-labeled competitor solution (0.018 kBq/μL) and 25 μL of the respective compound to be tested were added. The compound to be tested was added in eleven increasing concentrations, whereas the 12th well contained no test compound to ensure the 100% binding of the ^125I-labeled competitor. After incubation of the plate for another hour at 25°C, the solution was filtrated using the Millipore Multiscreen vacuum manifold, and the cells were washed three times with cold PBS (1 × 200 μL, 2 × 100 μL). Using a Millipore MultiScreen disposable punch and a Millipore MultiScreen punch kit, the filters of the well plate were collected in γ-counter tubes separately and measured by γ-counting. The determination of the half-maximal inhibitory concentration (IC50) values was performed by fitting the obtained data via nonlinear regression using GraphPad Prism (v6.05).

Test [2] concerns the target T2, integrin αvβ3 (Homo sapiens, UniProt P05106+P06756).
T2 construct: host or cells: U87MG human glioblastoma cells (whole cells)
Put plainly: Competitive displacement assay on integrin αvβ3-positive U87MG cells vs [125I]I-echistatin. Format: binding. Here is the method:
as §1, §2, §3

As to `CCCC[C@H](NC(=O)CNC(=O)CNC(=O)COCC(=O)NCCCN(CCCNC(=O)COCC(=O)NCCCC[C@@H]1NC(=O)[C@@H](Cc2ccccc2)NC(=O)[C@H](CC(=O)O)NC(=O)CNC(=O)[C@H](CCCNC(=N)N)NC1=O)CC(=O)N[C@@H](CCCCNC(=O)CCC[N+](C)(C)Cc1ccc([Si](F)(C(C)(C)C)C(C)(C)C)cc1)C(N)=O)C(=O)N[C@H]1CC(=O)NCCCC[C@@H](C(N)=O)NC(=O)[C@H](Cc2c[nH]c3ccccc23)NC(=O)[C@H](CCCNC(=N)N)NC(=O)[C@@H](Cc2ccccc2)NC(=O)[C@H](Cc2c[nH]cn2)NC1=O` [HBPL 5, SiFAlin-APG-DIG-c(RGDfK)/GG-Nle-c(DHfRWK)], the IC50 in test [1] is 2.05 ± 0.35 nM; in test [2], 5900 ± 722 nM. In the case of `CCCC[C@H](NC(=O)CNC(=O)CNC(=O)CCOCCOCCOCCOCCOCCOCCC(=O)NCCCN(CCCNC(=O)CCOCCOCCOCCOCCOCCOCCC(=O)NCCCC[C@@H]1NC(=O)[C@@H](Cc2ccccc2)NC(=O)[C@H](CC(=O)O)NC(=O)CNC(=O)[C@H](CCCNC(=N)N)NC1=O)CC(=O)N[C@@H](CCCCNC(=O)CCC[N+](C)(C)Cc1ccc([Si](F)(C(C)(C)C)C(C)(C)C)cc1)C(N)=O)C(=O)N[C@H]1CC(=O)NCCCC[C@@H](C(N)=O)NC(=O)[C@H](Cc2c[nH]c3ccccc23)NC(=O)[C@H](CCCNC(=N)N)NC(=O)[C@@H](Cc2ccccc2)NC(=O)[C@H](Cc2c[nH]cn2)NC1=O` [HBPL 3, SiFAlin-APG-PEG5-c(RGDfK)/GG-Nle-c(DHfRWK)], the IC50 worked out at 3.44 ± 0.09 nM in test [1] and 1910 ± 70 nM in test [2]. With `N=C(N)NCCC[C@@H]1NC(=O)[C@H](CCCCN)NC(=O)[C@@H](Cc2ccccc2)NC(=O)[C@H](CC(=O)O)NC(=O)CNC1=O` [c(RGDfK), cyclic Arg-Gly-Asp-DPhe-Lys, reference compound], the “receptor-specific binding to MC1R” value in test [1] (B16F10 cells, same conditions as IC50 assay (Figure S92)) is recorded as “no receptor-specific binding”. Regarding `CCCC[C@H](NC(=O)CNC(=O)CNC(=O)CCOCCOCCOCCOCCC(=O)NCCCN(CCCNC(=O)CCOCCOCCOCCOCCC(=O)NCCCC[C@@H]1NC(=O)[C@@H](Cc2ccccc2)NC(=O)[C@H](CC(=O)O)NC(=O)CNC(=O)[C@H](CCCNC(=N)N)NC1=O)CC(=O)N[C@@H](CCCCNC(=O)CCC[N+](C)(C)Cc1ccc([Si](F)(C(C)(C)C)C(C)(C)C)cc1)C(N)=O)C(=O)N[C@H]1CC(=O)NCCCC[C@@H](C(N)=O)NC(=O)[C@H](Cc2c[nH]c3ccccc23)NC(=O)[C@H](CCCNC(=N)N)NC(=O)[C@@H](Cc2ccccc2)NC(=O)[C@H](Cc2c[nH]cn2)NC1=O` [HBPL 2, SiFAlin-APG-PEG3-c(RGDfK)/GG-Nle-c(DHfRWK)], the concentration for half-maximal inhibition (IC50) worked out at 0.99 ± 0.11 nM in test [1] and 1300 ± 288 nM in test [2].

Regarding `CCCC[C@H](NC(=O)CNC(=O)CNC(=O)[C@H](CCC(=O)O)NC(=O)CNC(=O)[C@H](CCC(=O)O)NC(=O)CNC(=O)[C@H](CCC(=O)O)NC(=O)C(=O)NCCCN(CCCNC(=O)C(=O)N[C@@H](CCC(=O)O)C(=O)NCC(=O)N[C@@H](CCC(=O)O)C(=O)NCC(=O)N[C@@H](CCC(=O)O)C(=O)NCCCC[C@@H]1NC(=O)[C@@H](Cc2ccccc2)NC(=O)[C@H](CC(=O)O)NC(=O)CNC(=O)[C@H](CCCNC(=N)N)NC1=O)CC(=O)N[C@@H](CCCCNC(=O)CCC[N+](C)(C)Cc1ccc([Si](F)(C(C)(C)C)C(C)(C)C)cc1)C(N)=O)C(=O)N[C@H]1CC(=O)NCCCC[C@@H](C(N)=O)NC(=O)[C@H](Cc2c[nH]c3ccccc23)NC(=O)[C@H](CCCNC(=N)N)NC(=O)[C@@H](Cc2ccccc2)NC(=O)[C@H](Cc2c[nH]cn2)NC1=O` [HBPL 6, SiFAlin-APG-Ox-EGEGE-c(RGDfK)/GG-Nle-c(DHfRWK)], the IC50 in test [1] is 4.18 ± 0.32 nM; in test [2], greater than 100000 nM. The “IC50 (U87MG)” value in test [2] (integrin αvβ3-positive U87MG cells, competitor [125I]I-echistatin, mean ± SD) is “could not be determined”. As to `CCCC[C@H](NC(=O)CNC(=O)CNC(=O)CCOCCOCCC(=O)NCCCN(CCCNC(=O)CCOCCOCCC(=O)NCCCC[C@@H]1NC(=O)[C@@H](Cc2ccccc2)NC(=O)[C@H](CC(=O)O)NC(=O)CNC(=O)[C@H](CCCNC(=N)N)NC1=O)CC(=O)N[C@@H](CCCCNC(=O)CCC[N+](C)(C)Cc1ccc([Si](F)(C(C)(C)C)C(C)(C)C)cc1)C(N)=O)C(=O)N[C@H]1CC(=O)NCCCC[C@@H](C(N)=O)NC(=O)[C@H](Cc2c[nH]c3ccccc23)NC(=O)[C@H](CCCNC(=N)N)NC(=O)[C@@H](Cc2ccccc2)NC(=O)[C@H](Cc2c[nH]cn2)NC1=O` [HBPL 1, SiFAlin-APG-PEG1-c(RGDfK)/GG-Nle-c(DHfRWK)], the IC50 in test [1] came out at 1.74 ± 0.25 nM; in test [2] it was 2880 ± 757 nM.

In the case of `CCCC[C@H](NC(=O)CNC(=O)CNC(=O)CCOCCOCCOCCOCCOCCOCCOCCOCCOCCC(=O)NCCCN(CCCNC(=O)CCOCCOCCOCCOCCOCCOCCOCCOCCOCCC(=O)NCCCC[C@@H]1NC(=O)[C@@H](Cc2ccccc2)NC(=O)[C@H](CC(=O)O)NC(=O)CNC(=O)[C@H](CCCNC(=N)N)NC1=O)CC(=O)N[C@@H](CCCCNC(=O)CCC[N+](C)(C)Cc1ccc([Si](F)(C(C)(C)C)C(C)(C)C)cc1)C(N)=O)C(=O)N[C@H]1CC(=O)NCCCC[C@@H](C(N)=O)NC(=O)[C@H](Cc2c[nH]c3ccccc23)NC(=O)[C@H](CCCNC(=N)N)NC(=O)[C@@H](Cc2ccccc2)NC(=O)[C@H](Cc2c[nH]cn2)NC1=O` [HBPL 4, SiFAlin-APG-PEG8-c(RGDfK)/GG-Nle-c(DHfRWK)], the results for the IC50 in test [1] and in test [2] were 6 ± 0.47 nM and 2030 ± 323 nM, respectively. With `N=C(N)NCCC[C@@H]1NC(=O)[C@H](CS)NC(=O)[C@@H](Cc2ccccc2)NC(=O)[C@H](CC(=O)O)NC(=O)CNC1=O` [c(RGDfC), reference compound] (cyclo(RGD[dF]C)), the IC50 in test [2] (integrin αvβ3-positive U87MG cells, competitor [125I]I-echistatin, mean ± SD, read-out: IC50 (U87MG)) was 1490 ± 210 nM. On to “Gly-Gly-Nle-cyclic Asp-His-DPhe-Arg-Trp-Lys [GG-Nle-c(DHfRWK), reference compound]”, for which the “receptor-specific binding to integrin αvβ3” value in test [2] (U87MG cells, same conditions as IC50 assay (Figure S92)) is reported as “no receptor-specific binding”.

Take “NDP: superpotent synthetic analog of the endogenous ligand α-MSH; reference and blocking substance [reference compound]”: the IC50 in test [1] (MC1R-positive B16F10 cells, competitor [125I]I-NDP, mean ± SD, read-out: IC50 (B16F10)) was found to be 0.17 ± 0.04 nM.

The IC50 is the concentration that inhibits the measured activity by half.
